The values below are quoted from earlier work in PMC3918245 (ChemMedChem, 2013).

The data set has as its system deep-pocket MMPs. Particulars: semi-selective inhibition; specific inhibitors of MMP-8 and MMP-12.

On to `O=C(NCc1ccc(-c2ccccc2)cc1)c1cccc(=O)n1O` [1,2-HOPO-2], for which the “IC50 against deep-pocket MMPs” value is “low nanomolar range”.
